Converted amounts (≈) assume the structure as drawn. “Also recorded” adds a separate entry of the source. Counter-ions that a name gives are not always drawn. Like-named read-outs stand apart in the source and are kept apart here. Blank lines part the entries; values can stand above or below the molecule they belong to.
Assays:
[1] = tested on: Trichomonas vaginalis strain TVL; assay: Activity against Trichomonas vaginalis, two-fold tube dilution method; assay type: cell-based; settings: Trichomonas vaginalis, 48 hours at 37° C.
Method: Trichomonas vaginalis (applicant's internal code TVL) was grown on Trichomonas Culture Medium Base (Merck) plus 10% heat treated horse serum. Inoculum: approximately 10^5 organisms/ml. Incubation: 48 hours at 37° C.

yeasts = settings: cited from earlier work
[2] = tested on: Gardnerella vaginalis ATCC 14018 and other 11 clinical isolates; assay: Activity against Gardnerella vaginalis, standard two fold dilution methods; settings: for Number of strains with MIC of 8 mcg/ml: MIC 8 mcg/ml
[3] = tested on: Candida albicans SKF 2270; assay: Activity against Candida strains, two-fold dilution method; assay type: cell-based; settings: Candida albicans
Method: (§1) This set of experiments included also one strain each of two other Candida species, Candida tropicalis and Candida kruzei. The M.I.C. were determined by the two-fold dilution method in buffered (0.01 M phosphate buffer, pH 7.4) yeast nitrogen base medium (Difco) supplemented with 1.5 g/liter asparagine in microtiter trays. Inocula were approximately 10^4 colony forming units/ml. Incubation was for 20 h at 30° C. Purpuromycin was dissolved in DMSO and added to the cultures as above.

[4] = tested on: Candida albicans ATCC 10231; assay: as above; assay type: cell-based; settings: Candida albicans
Method: as §1

Stability = assay type: physicochemical
[5] = tested on: Escherichia coli SKF 12140; assay: In vitro activity, M.I.C., microbroth dilution; assay type: cell-based; settings: salts calculated as weight of purpuromycin; 37° C., 20 h
Method: (§2) MIC were determined by the microbroth dilution test. Bacteria were grown at 37° C., fungi at 30° C. Incubation was for 20 h, except for Propionibacterium acnes, Bacteroides fragilis, Neisseria gonorrhoeae, Haemophilus influenzae (48 h) and Trichophyton mentagrophytes (72h) Neisseria gonorrhoeae and Haemophilus influenzae were incubated in a CO2 -enriched (5%) atmosphere; Propionibacterium acnes and Bacteroides fragilis in an anaerobic hood. Media used were: Oxoid Iso-sensitest broth (Staphylococci, Enterococcus faecalis and Escherichia coli); Difco Todd-Hewitt broth (streptococci); Difco GC base broth with 1% BBL IsoVitaleX (Neisseria gonorrhoeae); Difco Brain-Heart Infusion broth with 1% Difco supplement C (Haemophilus influenzae); Difco Wilkins-Chalgren broth (Propionibacterium acnes and Bacteroides fragilis); Difco Yeast Nitrogen Base broth with 1.5 g/1 asparagine (Candida albicans); Difco Sabouraud-dextrose broth (Trichophyton mentagrophytes). Inocula were approximately 10^4 CFU/ml.

Strep. pneumoniae L44 = assay: In vitro activity, M.I.C., microbroth dilution; assay type: cell-based; settings: salts calculated as weight of purpuromycin; 37° C., 20 h
Method: as §2

[6] = tested on: Trichophyton mentagrophytes SKF 17410; assay: In vitro activity, M.I.C., microbroth dilution; assay type: cell-based; settings: salts calculated as weight of purpuromycin; 30° C., 72 h
Method: as §2

[7] = tested on: Staph. epidermidis ATCC 12228; assay: In vitro activity, M.I.C., microbroth dilution; assay type: cell-based; settings: salts calculated as weight of purpuromycin; 37° C., 20 h
Method: as §2

Strep. pyogenes L49 = assay: In vitro activity, M.I.C., microbroth dilution; assay type: cell-based; settings: salts calculated as weight of purpuromycin; 37° C., 20 h
Method: as §2

[8] = tested on: Candida albicans SKF 2270; assay: In vitro activity, M.I.C., microbroth dilution; assay type: cell-based; settings: salts calculated as weight of purpuromycin; 30° C., 20 h
Method: as §2

[9] = tested on: Neisseria gonorrhoeae L 997; assay: In vitro activity, M.I.C., microbroth dilution; assay type: cell-based; settings: salts calculated as weight of purpuromycin; 37° C., 48 h, 5% CO2
Method: as §2

Staph. haemolyticus L602 = assay: In vitro activity, M.I.C., microbroth dilution; assay type: cell-based; settings: salts calculated as weight of purpuromycin; 37° C., 20 h
Method: as §2

[10] = tested on: Bacteroides fragilis ATCC 23745; assay: In vitro activity, M.I.C., microbroth dilution; assay type: cell-based; settings: salts calculated as weight of purpuromycin; 37° C., 48 h, anaerobic hood
Method: as §2

Staph. aureus Tour L 165 = assay: In vitro activity, M.I.C., microbroth dilution; assay type: cell-based; settings: salts calculated as weight of purpuromycin; 37° C., 20 h
Method: as §2

[11] = tested on: Enterococcus faecalis ATCC 7080; assay: In vitro activity, M.I.C., microbroth dilution; assay type: cell-based; settings: salts calculated as weight of purpuromycin; 37° C., 20 h
Method: as §2

[12] = tested on: Haemophilus influenzae ATCC 19418; assay: In vitro activity, M.I.C., microbroth dilution; assay type: cell-based; settings: salts calculated as weight of purpuromycin; 37° C., 48 h, 5% CO2
Method: as §2

[13] = tested on: Propionibacterium acnes ATCC 6919; assay: In vitro activity, M.I.C., microbroth dilution; assay type: cell-based; settings: salts calculated as weight of purpuromycin; 37° C., 48 h, anaerobic hood
Method: as §2

[14] = Solubility and pH of solution; assay type: physicochemical
[15] = tested on: Trichomonas vaginalis TVL; assay: In vitro activity, M.I.C., microtiter trays; assay type: cell-based; settings: salts calculated as weight of purpuromycin; 48 h, anaerobic hood, 37° C.
Method: MIC were performed in flat-bottomed microtiter trays, with 0.2 ml per well. The medium was TYM modified basal medium (Merck) plus 10% horse serum (treated to inactivate complement). The inoculum was ca. 10^5 organisms/ml; incubation was for 48 h in an anaerobic hood (37° C.).The microtiter wells were read using an inverted light microscope. The MIC was taken as the lowest concentration at which no live (mobile) protozoa were seen.

Candida tropicalis L 243 = assay: Activity against Candida strains, two-fold dilution method; assay type: cell-based; settings: L243, 20 h at 30° C., pH 7.4
Method: as §1, with “above. The following TABLE IV reports the MIC values for the whole set of strains.” for “above.”

Candida kruzei L 244 = assay: as above; assay type: cell-based; settings: L244, 20 h at 30° C., pH 7.4
Method: as §1, with “above. The following TABLE IV reports the MIC values for the whole set of strains.” for “above.”

[16] = tested on: Candida albicans (19 clinical isolates); assay: as above; assay type: cell-based; settings: 20 h at 30° C., pH 7.4
Method: as §1, with “above. The following TABLE IV reports the MIC values for the whole set of strains.” for “above.”

[17] = tested on: Gram-positive and Gram-negative bacteria and fungi; settings: reported in UK Patent 1455128 and U.S. Pat. No. 3,914,257; cited from earlier work
Gardnerella vaginalis = assay: In vitro activity, M.I.C., agar dilution; assay type: cell-based; settings: salts calculated as weight of purpuromycin; ATCC 14018 and 10 clinical isolates, all same M.I.C.; inoculum ca. 10^5 CFU, 48 h
Method: **The assay was carried out on strain ATCC 14018 and 10 clinical isolates
Incubation was for 48 h in an anaerobic hood (37° C.); inoculum ca. 10^5 CFU.

[18] = conjugate acid of the second basic group; cited from earlier work
[19] = Biological activity (general statement); settings: formed by hydrolysis of the carbomethoxy group of purpuromycin

MIC ([1]; read-out: MIC): 0.25 µg/mL (≈ 1.46 µM)
MIC ([2]; Gardnerella vaginalis, read-out: MIC on resistant strains): > 32 µg/mL
Number of strains with MIC of 4 mcg/ml ([2]; MIC 4 mcg/ml, 12 strains tested): 1 strains
Number of strains with MIC of 8 mcg/ml ([2]; 12 strains tested): 3 strains
Number of strains with MIC of 16 mcg/ml ([2]; MIC 16 mcg/ml, 12 strains tested): 4 strains
Number of strains with MIC of 128 mcg/ml ([2]; MIC 128 mcg/ml, 12 strains tested): 3 strains
MIC ([3]; SKF2270, 20 h, comparative tests, antibacterial agents, read-out: M.I.C.): > 128 µg/mL
MIC ([4]; ATCC10231, 20 h, comparative tests, antibacterial agents, read-out: M.I.C.): > 128 µg/mL
SMILES: Cc1ncc([N+](=O)[O-])n1CCO [Metronidazole]
activity against yeasts (yeasts): not active against yeasts

SMILES: COC(=O)c1cc2cc3c(c(O)c2c(=O)o1)OC1(Cc2c(O)c4c(c(O)c2O1)C(=O)C(OC)=CC4=O)CC3O (stereo not drawn) [Purpuromycin]
MIC ([1]; dissolved in DMSO, read-out: minimal inhibitory concentration (M.I.C.)): 4 µg/mL (≈ 7.43 µM)
MIC ([1]; read-out: MIC): 4 µg/mL (≈ 7.43 µM)
stability (in words) (Stability): hydrolysis of the carbomethoxy group; also recorded: undergoes a degradation process
M.I.C. [5]: 8 mg/L
M.I.C. (Strep. pneumoniae L44): 0.06 mg/L
M.I.C. [6]: 1 mg/L
M.I.C. [7]: 0.06 mg/L
M.I.C. (Strep. pyogenes L49): 0.06 mg/L
M.I.C. [8]: 1 mg/L
M.I.C. [9]: 0.06 mg/L
M.I.C. (Staph. haemolyticus L602): 0.06 mg/L
M.I.C. [10]: 0.13 mg/L
M.I.C. (Staph. aureus Tour L 165): 0.06 mg/L
M.I.C. [11]: 0.06 mg/L
M.I.C. [12]: 0.06 mg/L
M.I.C. [13]: 0.06 mg/L
solubility ([14]; buffer, pH 8.5, aqueous buffer, pH 8.5 buffer, read-out: solubility in water): 22 µg/mL (≈ 40.9 µM)
solubility (in words) ([14]; solvent): practically insoluble in water and in lower alkanols; also recorded: poorly soluble in most organic solvents
M.I.C. [15]: 4 mg/L
MIC (Candida tropicalis L 243): 2 µg/mL (≈ 3.71 µM)
MIC (Candida kruzei L 244): 4 µg/mL (≈ 7.43 µM)
MIC [16]: 1 to 4 µg/mL (≈ 1.86 to 7.43 µM)
in vitro antimicrobial activity [17]: active in vitro against both Gram-positive and Gram-negative bacteria and fungi
M.I.C. (Gardnerella vaginalis): 16 mg/L
Number of strains with MIC of 8 mcg/ml ([2]; 12 strains tested): 12 strains
MIC ([3]; SKF2270, 20 h at 30° C., pH 7.4, read-out: MIC): 1 µg/mL (≈ 1.86 µM)
MIC ([4]; ATCC10231, 20 h at 30° C., pH 7.4, read-out: MIC): 0.5 µg/mL (≈ 0.929 µM)

SMILES: COC(=O)c1cc2cc3c(c(O)c2c(=O)o1)OC1(Cc2c(O)c4c(c(O)c2O1)C(=O)C(OC)=CC4=O)CC3O (stereo not drawn) [arginine salt]
stability (in words) (Stability): not sufficiently stable

SMILES: N=C(N)NCCC[C@H](N)C(=O)O [arginine]
pK3 value [18]: higher than 13

activity of degradation product [19]: almost inactive
SMILES: COC1=CC(=O)c2c(O)c3c(c(O)c2C1=O)OC1(C3)CC(O)c2cc3cc(C(=O)O)oc(=O)c3c(O)c2O1 (stereo not drawn) [carboxylic acid derivative]

From patent US5118705A, “Water soluble salts of purpuromycin and pharmaceutical formulations thereof” (Gruppo Lepetit S.p.A., priority 1990, dated 1992)
